Key:
Type in all cases: biochemical
human GST-DYRK1A = target: T1, human GST-DYRK1A (Homo sapiens, UniProt Q13627); experiment: GST-DYRK1A enzyme inhibition, ADP-Glo kinase assay; conditions: ATP 10 μM, GST-DYRK1A full length, read-out: DYRK1 IC50
T1 construct: purified human GST-DYRK1A (full length, Thermo Scientifics) enzyme; purchased Thermo Scientifics
How it was run: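 Full-length enzyme (10 ng) was incubated with 10 μM ATP and a specific substrate for 1 h at 25 °C in 40 mM Tris-HCl pH 7.4, 20 mM MgCl2, 0.5 mg/mL BSA, 50 μM DTT. Luminescence was read against a solvent control, and IC50 values were derived from 3 data sets.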

LRRK2 (G2019S) = LRRK2 (G2019S) (Homo sapiens, UniProt Q5S007, G2019S); experiment: LRRK2 G2019S enzyme inhibition, ADP-Glo kinase assay; design: purchased SignalChem L10-12GG; conditions: ATP 25 μM
How it was run: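 IC50 derived from luminescent ADP-Glo readout against untreated solvent control, twelve final compound concentrations from 50 μM downward. Reaction: recombinant human LRRK2 G2019S enzyme, 25 μM ATP, substrate, pH 7.4 Tris buffer with MgCl2/BSA/DTT, 25° C. for 2 hours.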

human GST-CLK1 = target: T2, human GST-CLK1 (Homo sapiens, UniProt P49759); experiment: GST-CLK1 enzyme inhibition, ADP-Glo kinase assay; conditions: ATP 10 μM, GST-CLK1 129-end
T2 construct: purified human GST-CLK1 (129-end, SignalChem) enzyme; purchased SignalChem
How it was run: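 ADP-Glo luminescence read-out, relative to untreated solvent control, gave IC50 (nM) from triplicate data sets. Reactions ran an hour at 25° C with 3 ng GST-CLK1 (residues 129-end), 10 μM ATP and specific substrate in Tris-HCl pH 7.4 buffer with MgCl2, BSA and DTT.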

T2 sequence (P49759 129-484 limits assumed): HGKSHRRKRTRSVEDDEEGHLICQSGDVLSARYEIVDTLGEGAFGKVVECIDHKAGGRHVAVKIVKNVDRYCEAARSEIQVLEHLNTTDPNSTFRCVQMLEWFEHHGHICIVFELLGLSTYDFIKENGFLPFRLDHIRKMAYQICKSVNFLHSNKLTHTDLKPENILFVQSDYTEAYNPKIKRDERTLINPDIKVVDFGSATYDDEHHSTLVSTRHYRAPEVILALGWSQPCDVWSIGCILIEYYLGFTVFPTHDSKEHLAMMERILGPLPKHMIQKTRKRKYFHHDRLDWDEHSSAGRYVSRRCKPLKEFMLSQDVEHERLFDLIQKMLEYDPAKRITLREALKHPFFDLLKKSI
Sequence of LRRK2 (G2019S) (Q5S007 970-2527 G2019S limits assumed): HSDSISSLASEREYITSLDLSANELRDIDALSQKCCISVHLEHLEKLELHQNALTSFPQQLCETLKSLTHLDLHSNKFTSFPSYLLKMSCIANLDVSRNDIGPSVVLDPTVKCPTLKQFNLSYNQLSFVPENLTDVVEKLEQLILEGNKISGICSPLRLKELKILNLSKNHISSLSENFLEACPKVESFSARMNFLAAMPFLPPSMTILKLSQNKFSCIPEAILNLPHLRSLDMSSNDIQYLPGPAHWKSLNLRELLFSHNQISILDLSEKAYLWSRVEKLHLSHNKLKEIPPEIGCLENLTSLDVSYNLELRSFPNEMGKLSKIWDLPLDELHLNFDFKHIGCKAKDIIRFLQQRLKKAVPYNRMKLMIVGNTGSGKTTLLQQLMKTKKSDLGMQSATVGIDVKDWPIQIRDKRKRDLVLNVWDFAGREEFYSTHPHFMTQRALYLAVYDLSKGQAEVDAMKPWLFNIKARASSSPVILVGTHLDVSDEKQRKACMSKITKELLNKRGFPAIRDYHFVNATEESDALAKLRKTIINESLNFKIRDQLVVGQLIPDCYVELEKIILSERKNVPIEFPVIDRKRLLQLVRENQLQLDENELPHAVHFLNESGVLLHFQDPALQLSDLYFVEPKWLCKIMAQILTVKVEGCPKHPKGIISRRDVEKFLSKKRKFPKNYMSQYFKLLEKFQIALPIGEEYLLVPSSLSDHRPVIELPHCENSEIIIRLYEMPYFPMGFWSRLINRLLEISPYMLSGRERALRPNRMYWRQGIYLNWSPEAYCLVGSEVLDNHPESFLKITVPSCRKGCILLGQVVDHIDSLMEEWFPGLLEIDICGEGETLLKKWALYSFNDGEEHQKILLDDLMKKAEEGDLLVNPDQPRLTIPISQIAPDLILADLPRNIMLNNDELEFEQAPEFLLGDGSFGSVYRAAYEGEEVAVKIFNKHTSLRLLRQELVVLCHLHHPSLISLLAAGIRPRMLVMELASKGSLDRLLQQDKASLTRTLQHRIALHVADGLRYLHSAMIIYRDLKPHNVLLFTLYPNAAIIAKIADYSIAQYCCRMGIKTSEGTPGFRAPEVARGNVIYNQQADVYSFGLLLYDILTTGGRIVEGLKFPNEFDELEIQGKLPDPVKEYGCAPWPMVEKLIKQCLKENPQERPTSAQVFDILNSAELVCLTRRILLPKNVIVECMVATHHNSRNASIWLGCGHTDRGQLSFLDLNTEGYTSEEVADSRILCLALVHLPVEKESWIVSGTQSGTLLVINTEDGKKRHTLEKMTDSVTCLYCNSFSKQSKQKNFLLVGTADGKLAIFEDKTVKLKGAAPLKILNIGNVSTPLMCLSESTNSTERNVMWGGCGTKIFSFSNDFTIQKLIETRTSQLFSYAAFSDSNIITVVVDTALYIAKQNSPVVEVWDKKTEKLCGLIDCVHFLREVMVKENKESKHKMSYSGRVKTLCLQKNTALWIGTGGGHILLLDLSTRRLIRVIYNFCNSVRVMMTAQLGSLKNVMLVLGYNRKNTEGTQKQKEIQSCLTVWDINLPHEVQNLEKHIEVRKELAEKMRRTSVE

Compound | IC50 (human GST-DYRK1A) | IC50 (LRRK2 (G2019S)) | IC50 (human GST-CLK1)
COc1cc(P2(=O)CCN(C3CC3)CC2)ccc1Nc1nc(NCC2CCC2)c2c(C(F)(F)F)c[nH]c2n1 [Example 423, 4-(4-((4-((cyclobutyl-methyl)amino)-5-(trifluoromethyl)-7H-pyrrolo[2,3-d]pyrimidin-2-yl)amino)-3-methoxyphenyl)-1-cyclopropyl-1,4-aza-phosphinane 4-oxide] | 301 to 1000 nM | < 100 nM | 301 to 1000 nM
O=C(c1ccc(Nc2nc(NCC3CCCC3)c3c(C(F)(F)F)c[nH]c3n2)c2c1OCCO2)N1CCN(C2COC2)CC1 [Example 425, (8-((4-((cyclo-pentylmeth-yl)amino)-5-(trifluoromethyl)-7H-pyrrolo[2,3-d]pyrimidin-2-yl)amino)-2,3-dihydrobenzo[b] [1,4]dioxin-5-yl) (4-(oxetan-3-yl)piperazin-1-yl)methanone] | 301 to 1000 nM | < 100 nM | 301 to 1000 nM
COc1cc(P2(=O)CCN(C3CC3)CC2)ccc1Nc1nc(NCCS(C)(=O)=O)c2c(C(F)(F)F)c[nH]c2n1 [Example 426, 1-cyclopropyl-4-(3-methoxy-4-((4-((2-(methyl-sulfonyl)eth-yl)amino)-5-(trifluoromethyl)-7H-pyrrolo[2,3-d]pyrimidin-2-yl)amino)phenyl)-1,4-azaphosphinane 4-oxide] | < 100 nM | < 100 nM | < 100 nM
CS(=O)(=O)CCNc1nc(Nc2ccc(C(=O)N3CCN(C4COC4)CC3)c3c2OCCO3)nc2[nH]cc(C(F)(F)F)c12 [Example 427, (8-((4-((2-(methylsulfonyl)ethyl)amino)-5-(trifluoromethyl)-7H-pyrrolo[2,3-d]pyrimidin-2-yl)amino)-2,3-dihydrobenzo[b] [1,4]dioxin-5-yl) (4-(oxetan-3-yl)piperazin-1-yl)methanone] | < 100 nM | < 100 nM | < 100 nM
CCCCNc1nc(Nc2ccc(P3(=O)CCN(C4CC4)CC3)cc2OC)nc2[nH]cc(C(F)(F)F)c12 [Example 428, 4-(4-((4-(butylamino)-5-(trifluoromethyl)-7H-pyrrolo[2,3-d]pyrimidin-2-yl)amino)-3-methoxyphenyl)-1-cyclopropyl-1,4-azaphosphinane 4-oxide] | 301 to 1000 nM | < 100 nM | 301 to 1000 nM
CCCCNc1nc(Nc2ccc(C(=O)N3CCN(C4COC4)CC3)c3c2OCCO3)nc2[nH]cc(C(F)(F)F)c12 [Example 429, (8-((4-(butylamino)-5-(trifluoromethyl)-7H-pyrrolo[2,3-d]pyrimidin-2-yl)amino)-2,3-dihydrobenzo[b] [1,4]dioxin-5-yl) (4-(oxetan-3-yl)piperazin-1-yl)methanone] | < 100 nM | < 100 nM | < 100 nM
O=C(c1ccc(Nc2nc(NC3CC3)c3c(C(F)(F)F)c[nH]c3n2)c2c1CCO2)N1CCOCC1 [Example 433, (7-((4-(cyclo-propylamino)-5-(trifluoromethyl)-7H-pyrrolo[2,3-d]pyrimidin-2-yl)amino)-2,3-dihydrobenzo-furan-4-yl) (morpholino) methanone] | 301 to 1000 nM | < 100 nM | < 100 nM
CC(C)CNc1nc(Nc2ccc(C(=O)N3CCOCC3)c3c2OCC3)nc2[nH]cc(C(F)(F)F)c12 [Example 447, (7-((4-(iso-butylamino)-5-(trifluoromethyl)-7H-pyrrolo[2,3-d]pyrimidin-2-yl)amino)-2,3-dihydrobenzo-furan-4-yl) (morpholino) methanone] | 301 to 1000 nM | < 100 nM | 301 to 1000 nM
CC(C)Nc1nc(Nc2ccc(C(=O)N3CCOCC3)c3c2OCC3)nc2[nH]cc(C(F)(F)F)c12 [Example 449, (7-((4-(isopropylamino)-5-(trifluoromethyl)-7H-pyrrolo[2,3-d]pyrimidin-2-yl)amino)-2,3-dihydrobenzo-furan-4-yl) (morpholino) methanone] | 301 to 1000 nM | < 100 nM | < 100 nM
CC[C@H](C)Nc1nc(Nc2ccc(C(=O)N3CCOCC3)c3c2OCC3)nc2[nH]cc(C(F)(F)F)c12 [Example 451, (S)-(7-((4-(sec-butylamino)-5-(trifluoromethyl)-7H-pyrrolo[2,3-d]pyrimidin-2-yl)amino)-2,3-dihydrobenzo-furan-4-yl) (morpholino) methanone] | 301 to 1000 nM | < 100 nM | 301 to 1000 nM
O=C(c1ccc(Nc2nc(NC3CCCC3)c3c(C(F)(F)F)c[nH]c3n2)c2c1CCO2)N1CCOCC1 [Example 453, (7-((4-(cyclo-pentylamino)-5-(trifluoromethyl)-7H-pyrrolo[2,3-d]pyrimidin-2-yl)amino)-2,3-dihydrobenzo-furan-4-yl) (morpholino) methanone] | 301 to 1000 nM | < 100 nM | 301 to 1000 nM
O=C(c1ccc(Nc2nc(NC3CCCCC3)c3c(C(F)(F)F)c[nH]c3n2)c2c1CCO2)N1CCOCC1 [Example 454, (7-((4-(cyclo-hexylamino)-5-(trifluoromethyl)-7H-pyrrolo[2,3-d]pyrimidin-2-yl)amino)-2,3-dihydrobenzo-furan-4-yl) (morpholino) methanone] | 301 to 1000 nM | < 100 nM | 301 to 1000 nM
O=C(c1ccc(Nc2nc(N[C@H]3CCOC3)c3c(C(F)(F)F)c[nH]c3n2)c2c1CCO2)N1CCOCC1 [Example 455] | < 100 nM | < 100 nM | < 100 nM
O=C(c1ccc(Nc2nc(NC3CCOCC3)c3c(C(F)(F)F)c[nH]c3n2)c2c1CCO2)N1CCOCC1 [Example 456, morpholino(7-((4-((tetrahydro-2H-pyran-4-yl)amino)-5-(trifluoromethyl)-7H-pyrrolo[2,3-d]pyrimidin-2-yl)amino)-2,3-dihydrobenzo-furan-4-yl)methanone] | 301 to 1000 nM | < 100 nM | < 100 nM
O=C(c1ccc(Nc2nc(NCC3CC3)c3c(C(F)(F)F)c[nH]c3n2)c2c1CCO2)N1CCOCC1 [Example 457, (7-((4-((cyclo-propylmeth-yl)amino)-5-(trifluoromethyl)-7H-pyrrolo[2,3-d]pyrimidin-2-yl)amino)-2,3-dihydrobenzo-furan-4-yl) (morpholino) methanone] | 301 to 1000 nM | < 100 nM | < 100 nM
O=C(c1ccc(Nc2nc(NCC3CCC3)c3c(C(F)(F)F)c[nH]c3n2)c2c1CCO2)N1CCOCC1 [Example 458, (7-((4-((cyclo-butylmethyl)amino)-5-(trifluoromethyl)-7H-pyrrolo[2,3-d]pyrimidin-2-yl)amino)-2,3-dihydrobenzo-furan-4-yl) (morpholino) methanone] | 301 to 1000 nM | < 100 nM | 301 to 1000 nM
O=C(c1ccc(Nc2nc(NC3CCCC3)c3c(C(F)(F)F)c[nH]c3n2)c2c1CCO2)N1CCC(N2CCOCC2)CC1 [Example 459, (7-((4-(cyclo-pentylamino)-5-(trifluoromethyl)-7H-pyrrolo[2,3-d]pyrimidin-2-yl)amino)-2,3-dihydrobenzo-furan-4-yl)(4-morpho-linopiperidin-1-yl)methanone] | 301 to 1000 nM | < 100 nM | 301 to 1000 nM
O=C(c1ccc(Nc2nc(NCC3CCCC3)c3c(C(F)(F)F)c[nH]c3n2)c2c1CCO2)N1CCOCC1 [Example 463, (7-((4-((cyclo-pentylmeth-yl)amino)-5-(trifluoromethyl)-7H-pyrrolo[2,3-d]pyrimidin-2-yl)amino)-2,3-dihydrobenzo-furan-4-yl) (morpholino) methanone] | 301 to 1000 nM | 301 to 1000 nM | 301 to 1000 nM
CCCCNc1nc(Nc2ccc(C(=O)N3CCOCC3)c3c2OCC3)nc2[nH]cc(C(F)(F)F)c12 [Example 465, (7-((4-(butylamino)-5-(trifluoromethyl)-7H-pyrrolo[2,3-d]pyrimidin-2-yl)amino)-2,3-dihydrobenzo-furan-4-yl) (morpholino) methanone] | 301 to 1000 nM | < 100 nM | 301 to 1000 nM

From patent US20230066011A1, “PYRROLOPYRIMIDINE DERIVATIVE, AND PHARMACEUTICAL COMPOSITION FOR PREVENTING OR TREATING PROTEIN KINASE-RELATED DISEASE COMPRISING SAME AS ACTIVE INGREDIENT” (VORONOI CO., LTD., priority 2019, published 2023)
